How the values were obtained:
TRAP5b = assay: Serum TRAP5b ELISA three weeks after implantation, Example 2; type: in vivo, C57BL/6 mice
Experimental: (§1) Three weeks after implantation, the mice were anaesthetized with inhalation of isoflurane (2%) and blood was collected by tail blood draw. After centrifuge for 10 minutes at 13000 rpm, serum was separated and kept frozen until biochemical assays were performed. Serum procollagen I N-terminal propeptide (P1NP) (MyBioSource, Inc) and TRAP5b (Novatein Biosciences, Mass.) ELISA immunoassays were performed following the manufacturer's protocols. The ELISA analyses were employed to evaluate the levels of bone biomarkers.

[1] = tested on: procollagen I N-terminal propeptide (P1NP); assay: Serum P1NP ELISA three weeks after implantation, Example 2; type: in vivo, C57BL/6 mice
Experimental: as §1

mouse calvarial defect = assay: Mouse calvarial critical size defect with nanofibrous scaffold: μCT of new bone 8 weeks after implantation; type: in vivo, C57BL/6 mice; details: compared to the control BSA group; μCT and histomorphometry
Experimental: To determine the optimal PTH release mode to ensure desired PTH anabolic action in bone regeneration, the pulsatile PTH delivery device and the continuous PTH delivery device were compared in identical experimental set ups to access the outcomes of bone regeneration in a critical size (2.3 mm in diameter) round defect created in the mouse skull. The BSA loaded pulsatile devices were used as vehicle controls. All animal procedures were performed following a protocol approved by the University of Michigan Institutional Animal Care and Use Committee. C57BL/6 mice were randomly divided into four groups. Animals were anaesthetized with isoflurane (2%) inhalation. The 2.3 mm diameter craniotomy defect centered on the parietal calvarial bone was created using a trephine. A blank nanofibrous scaffold was placed to fill in the defect and a delivery device (pulsatile PTH, continuous PTH, or BSA control device) was placed adjacent to the scaffold with the opening side facing the scaffold (see FIG. 24). […]
For the calvarial bone analysis, the skulls were scanned with a fixed global threshold of 20%. 3D reconstruction of the skull and quantitative analyses were performed. A 2.3 mm-round region of interest centered on the defect was determined and the bone volume (mm^3) (BV) and bone mineral density (BMD) in the area were measured using manufacturer's software (Scanco μCT 100).

[2] = in vivo; cited from earlier work
mouse tibiae = assay: Tibiae μCT to assess systemic side effects of local PTH release, Example 2; type: in vivo, C57BL/6 mice; details: compared to the BSA control group
Experimental: To determine the optimal PTH release mode to ensure desired PTH anabolic action in bone regeneration, the pulsatile PTH delivery device and the continuous PTH delivery device were compared in identical experimental set ups to access the outcomes of bone regeneration in a critical size (2.3 mm in diameter) round defect created in the mouse skull. The BSA loaded pulsatile devices were used as vehicle controls. All animal procedures were performed following a protocol approved by the University of Michigan Institutional Animal Care and Use Committee. C57BL/6 mice were randomly divided into four groups. Animals were anaesthetized with isoflurane (2%) inhalation. The 2.3 mm diameter craniotomy defect centered on the parietal calvarial bone was created using a trephine. A blank nanofibrous scaffold was placed to fill in the defect and a delivery device (pulsatile PTH, continuous PTH, or BSA control device) was placed adjacent to the scaffold with the opening side facing the scaffold (see FIG. 24).
Rather, PTH was subcutaneously injected for 3 weeks (21 days) using a standard systemic administration dose (40 μg/kg/d). […]
Mouse tibiae from the different groups were examined using μCT to assess the potential systemic side effects of the local PTH releases. […] A region of 0.75 mm right below the growth plate was analyzed to quantify the trabecular bone volume.

In the case of PTH (1-34), the “serum TRAP5b level (bone resorption marker)” value (TRAP5b) is reported as “significantly elevated”, the “serum P1NP level (bone formation marker)” value [1] is reported as “significantly elevated” and the “bone growth in the nanofibrous scaffold” value (mouse calvarial defect) is reported as “significantly promoted”. The half-life [2] was 8 min and the “tibia trabecular bone volume” value (mouse tibiae) was “significantly increased”.
